Results taken from ChEMBL document CHEMBL3745631, “Discovery of highly potent and selective Bruton's tyrosine kinase inhibitors: Pyridazinone analogs with improved metabolic stability” (Bioorg Med Chem Lett, 2016).

Columns and labels:
[1] = target: NUAK family SNF1-like kinase 1 (Homo sapiens) (UniProt O60285); test: Inhibition of ARK5 (unknown origin) at 1 uM
[2] = target: High affinity nerve growth factor receptor (Homo sapiens) (UniProt P04629); test: Inhibition of TrkA (unknown origin) at 1 uM
[3] = target: Mitogen-activated protein kinase kinase kinase 10 (Homo sapiens) (UniProt Q02779); test: Inhibition of MLK2 (unknown origin) at 1 uM
Sequence of Mitogen-activated protein kinase kinase kinase 10 (Homo sapiens) (Q02779 whole entry, looked up): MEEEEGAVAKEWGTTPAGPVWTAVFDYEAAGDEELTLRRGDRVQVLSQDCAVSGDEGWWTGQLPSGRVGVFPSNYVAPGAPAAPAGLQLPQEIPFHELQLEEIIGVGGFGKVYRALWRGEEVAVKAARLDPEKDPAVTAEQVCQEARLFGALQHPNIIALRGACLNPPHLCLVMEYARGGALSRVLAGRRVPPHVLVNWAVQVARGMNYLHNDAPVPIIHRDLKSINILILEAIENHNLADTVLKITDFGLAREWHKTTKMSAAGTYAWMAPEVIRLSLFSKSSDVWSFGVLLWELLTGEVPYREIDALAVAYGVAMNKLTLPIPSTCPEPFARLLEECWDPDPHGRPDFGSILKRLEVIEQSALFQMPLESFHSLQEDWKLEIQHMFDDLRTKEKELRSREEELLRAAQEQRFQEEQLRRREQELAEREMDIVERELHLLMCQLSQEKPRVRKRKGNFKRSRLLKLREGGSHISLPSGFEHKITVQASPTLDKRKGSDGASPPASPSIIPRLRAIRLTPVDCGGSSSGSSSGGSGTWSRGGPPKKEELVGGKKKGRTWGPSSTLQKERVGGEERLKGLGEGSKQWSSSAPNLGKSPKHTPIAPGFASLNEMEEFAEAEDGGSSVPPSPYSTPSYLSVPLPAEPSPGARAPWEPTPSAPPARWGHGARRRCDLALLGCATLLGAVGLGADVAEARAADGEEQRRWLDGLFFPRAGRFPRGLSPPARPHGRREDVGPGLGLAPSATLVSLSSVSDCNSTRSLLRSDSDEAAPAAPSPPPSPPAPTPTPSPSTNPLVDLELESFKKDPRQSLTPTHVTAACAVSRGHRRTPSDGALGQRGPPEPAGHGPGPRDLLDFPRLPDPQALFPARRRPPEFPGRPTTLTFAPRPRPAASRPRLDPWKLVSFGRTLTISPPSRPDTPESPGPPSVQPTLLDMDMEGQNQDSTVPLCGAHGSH

[4] = target: Tyrosine-protein kinase FRK (Homo sapiens) (UniProt P42685); test: Inhibition of Frk (unknown origin) at 1 uM
Sequence of Tyrosine-protein kinase FRK (Homo sapiens) (P42685 whole entry): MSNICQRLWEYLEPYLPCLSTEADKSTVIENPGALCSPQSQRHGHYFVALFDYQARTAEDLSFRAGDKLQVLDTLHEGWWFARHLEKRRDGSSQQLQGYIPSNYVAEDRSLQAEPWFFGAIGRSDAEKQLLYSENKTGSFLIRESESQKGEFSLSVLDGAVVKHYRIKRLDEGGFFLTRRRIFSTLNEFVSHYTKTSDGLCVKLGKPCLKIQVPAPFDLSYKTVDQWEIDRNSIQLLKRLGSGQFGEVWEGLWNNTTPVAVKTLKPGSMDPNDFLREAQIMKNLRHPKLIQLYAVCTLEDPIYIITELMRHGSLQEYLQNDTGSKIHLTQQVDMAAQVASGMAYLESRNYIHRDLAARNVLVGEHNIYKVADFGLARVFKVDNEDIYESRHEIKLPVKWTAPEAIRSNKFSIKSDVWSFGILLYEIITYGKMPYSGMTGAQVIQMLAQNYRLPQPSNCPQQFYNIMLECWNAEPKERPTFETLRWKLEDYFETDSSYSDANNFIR

[5] = target: Sphingosine kinase 1 (Homo sapiens) (UniProt Q9NYA1); test: Inhibition of SPHK1 (unknown origin) at 1 uM
[6] = target: Mitogen-activated protein kinase 10 (Homo sapiens) (UniProt P53779); test: Inhibition of JNK3 (unknown origin) at 1 uM
[7] = target: Casein kinase I isoform gamma-2 (Homo sapiens) (UniProt P78368); test: Inhibition of CK1 gamma2 (unknown origin) at 1 uM
Sequence of Casein kinase I isoform gamma-2 (Homo sapiens) (P78368 whole entry, looked up, canonical isoform): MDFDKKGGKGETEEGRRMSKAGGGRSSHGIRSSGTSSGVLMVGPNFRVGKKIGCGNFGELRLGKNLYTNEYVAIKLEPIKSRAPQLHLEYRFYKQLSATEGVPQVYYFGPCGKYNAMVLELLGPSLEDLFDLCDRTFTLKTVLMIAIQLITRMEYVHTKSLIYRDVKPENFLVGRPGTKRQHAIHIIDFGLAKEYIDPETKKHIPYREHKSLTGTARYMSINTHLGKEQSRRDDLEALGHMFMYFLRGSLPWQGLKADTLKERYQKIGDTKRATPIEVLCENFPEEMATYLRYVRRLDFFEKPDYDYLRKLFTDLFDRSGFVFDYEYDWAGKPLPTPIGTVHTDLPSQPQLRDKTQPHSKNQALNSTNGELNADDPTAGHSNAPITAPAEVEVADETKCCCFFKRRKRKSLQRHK

[8] = target: Calcium/calmodulin-dependent protein kinase type 1D (Homo sapiens) (UniProt Q8IU85); test: Inhibition of CaMK1 delta (unknown origin) at 1 uM
Sequence of Calcium/calmodulin-dependent protein kinase type 1D (Homo sapiens) (Q8IU85 whole entry, looked up, canonical isoform): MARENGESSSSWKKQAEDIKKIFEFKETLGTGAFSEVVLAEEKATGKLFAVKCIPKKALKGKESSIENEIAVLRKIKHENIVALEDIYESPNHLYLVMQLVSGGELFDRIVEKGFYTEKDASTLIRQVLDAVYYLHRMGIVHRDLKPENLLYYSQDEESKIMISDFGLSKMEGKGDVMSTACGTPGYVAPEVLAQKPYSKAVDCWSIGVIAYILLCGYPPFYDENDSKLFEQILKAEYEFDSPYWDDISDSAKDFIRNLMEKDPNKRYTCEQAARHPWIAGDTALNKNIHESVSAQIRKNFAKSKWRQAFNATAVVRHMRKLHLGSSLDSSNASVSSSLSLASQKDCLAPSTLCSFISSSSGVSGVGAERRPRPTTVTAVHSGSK

[9] = target: Phosphatidylinositol 4,5-bisphosphate 3-kinase catalytic subunit alpha isoform (Homo sapiens) (UniProt P42336); test: Inhibition of PI3KA (unknown origin) at 1 uM
[10] = target: Tyrosine-protein kinase ITK/TSK (Homo sapiens) (UniProt Q08881); test: Inhibition of ITK (unknown origin) at 1 uM
Sequence of Tyrosine-protein kinase ITK/TSK (Homo sapiens) (Q08881 whole entry): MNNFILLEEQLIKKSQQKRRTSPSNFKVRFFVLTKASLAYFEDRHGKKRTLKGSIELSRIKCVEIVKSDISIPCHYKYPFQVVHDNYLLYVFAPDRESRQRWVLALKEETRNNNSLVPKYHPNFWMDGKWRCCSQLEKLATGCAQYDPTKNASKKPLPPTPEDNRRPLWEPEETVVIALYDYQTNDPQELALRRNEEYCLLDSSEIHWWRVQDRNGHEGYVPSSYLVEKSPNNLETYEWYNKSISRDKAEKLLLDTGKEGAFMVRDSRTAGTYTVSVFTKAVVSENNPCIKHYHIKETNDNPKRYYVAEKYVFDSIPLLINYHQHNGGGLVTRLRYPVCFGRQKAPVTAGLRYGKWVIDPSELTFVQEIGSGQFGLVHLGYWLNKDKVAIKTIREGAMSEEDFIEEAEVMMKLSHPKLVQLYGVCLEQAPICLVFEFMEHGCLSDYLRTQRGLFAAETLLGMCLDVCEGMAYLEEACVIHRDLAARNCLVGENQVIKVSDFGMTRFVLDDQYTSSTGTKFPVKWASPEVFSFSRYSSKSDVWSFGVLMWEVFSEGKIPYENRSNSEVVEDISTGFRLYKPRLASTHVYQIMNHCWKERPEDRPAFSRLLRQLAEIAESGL

[11] = target: Ephrin type-A receptor 1 (Homo sapiens) (UniProt P21709); test: Inhibition of EphA1 (unknown origin) at 1 uM
[12] = target: Mitogen-activated protein kinase 11 (Homo sapiens) (UniProt Q15759); test: Inhibition of p38 beta (unknown origin) at 1 uM
Sequence of Mitogen-activated protein kinase 11 (Homo sapiens) (Q15759 whole entry): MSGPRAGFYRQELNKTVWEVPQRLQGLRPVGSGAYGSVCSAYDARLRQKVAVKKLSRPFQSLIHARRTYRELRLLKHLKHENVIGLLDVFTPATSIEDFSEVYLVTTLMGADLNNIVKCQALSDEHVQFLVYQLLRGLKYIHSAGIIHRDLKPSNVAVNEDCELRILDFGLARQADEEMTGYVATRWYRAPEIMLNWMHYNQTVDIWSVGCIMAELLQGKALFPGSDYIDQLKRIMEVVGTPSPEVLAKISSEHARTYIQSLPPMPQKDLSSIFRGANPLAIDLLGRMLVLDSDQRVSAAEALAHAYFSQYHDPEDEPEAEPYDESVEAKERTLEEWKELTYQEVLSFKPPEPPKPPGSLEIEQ

[13] = target: Serine/threonine-protein kinase Nek1 (Homo sapiens) (UniProt Q96PY6); test: Inhibition of NEK1 (unknown origin) at 1 uM
[14] = target: Serine/threonine-protein kinase 17A (Homo sapiens) (UniProt Q9UEE5); test: Inhibition of DRAK1 (unknown origin) at 1 uM
[15] = target: Epithelial discoidin domain-containing receptor 1 (Homo sapiens) (UniProt Q08345); test: Inhibition of DDR1 (unknown origin) at 1 uM
[16] = target: DNA-dependent protein kinase catalytic subunit (Homo sapiens) (UniProt P78527); test: Inhibition of DNA-PK (unknown origin) at 1 uM
[17] = target: Protein kinase C theta type (Homo sapiens) (UniProt Q04759); test: Inhibition of PKCtheta (unknown origin) at 1 uM
Sequence of Protein kinase C theta type (Homo sapiens) (Q04759 whole entry, looked up): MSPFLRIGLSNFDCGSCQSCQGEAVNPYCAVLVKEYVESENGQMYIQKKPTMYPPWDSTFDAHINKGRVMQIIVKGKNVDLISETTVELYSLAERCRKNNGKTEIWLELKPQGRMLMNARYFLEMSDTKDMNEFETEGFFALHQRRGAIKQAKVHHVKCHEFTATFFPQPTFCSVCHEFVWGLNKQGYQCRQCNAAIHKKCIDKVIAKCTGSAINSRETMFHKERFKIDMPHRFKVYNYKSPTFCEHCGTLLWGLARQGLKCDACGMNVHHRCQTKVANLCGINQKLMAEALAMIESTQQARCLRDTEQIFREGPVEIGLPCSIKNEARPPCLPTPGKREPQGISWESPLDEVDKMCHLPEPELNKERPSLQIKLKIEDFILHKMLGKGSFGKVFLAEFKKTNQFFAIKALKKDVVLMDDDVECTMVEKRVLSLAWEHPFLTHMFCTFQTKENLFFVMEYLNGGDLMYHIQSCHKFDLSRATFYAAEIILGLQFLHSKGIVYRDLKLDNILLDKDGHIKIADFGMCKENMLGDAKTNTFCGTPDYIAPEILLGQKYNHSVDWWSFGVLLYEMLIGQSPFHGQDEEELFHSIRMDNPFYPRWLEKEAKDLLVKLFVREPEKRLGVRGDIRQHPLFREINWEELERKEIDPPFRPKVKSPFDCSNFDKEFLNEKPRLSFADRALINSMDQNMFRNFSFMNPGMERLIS

[18] = target: Misshapen-like kinase 1 (Homo sapiens) (UniProt Q8N4C8); test: Inhibition of Mink1 (unknown origin) at 1 uM
[19] = target: Mitogen-activated protein kinase kinase kinase kinase 2 (GCK) (Homo sapiens) (UniProt Q12851); test: Inhibition of GCK (unknown origin) at 1 uM
[20] = target: Protein kinase C epsilon type (Homo sapiens) (UniProt Q02156); test: Inhibition of PKCepsilon (unknown origin) at 1 uM
[21] = target: Casein kinase I isoform delta (Homo sapiens) (UniProt P48730); test: Inhibition of CK1 delta (unknown origin) at 1 uM
[22] = target: Muscle, skeletal receptor tyrosine-protein kinase (Homo sapiens) (UniProt O15146); test: Inhibition of MusK (unknown origin) at 1 uM
[23] = target: BDNF/NT-3 growth factors receptor (Homo sapiens) (UniProt Q16620); test: Inhibition of TrkB (unknown origin) at 1 uM
[24] = target: Tyrosine-protein kinase Blk (Homo sapiens) (UniProt P51451); test: Inhibition of Blk (unknown origin) at 1 uM
[25] = target: Fibroblast growth factor receptor 4 (Homo sapiens) (UniProt P22455); test: Inhibition of FGFR4 (unknown origin) at 1 uM
[26] = target: Protein kinase C delta type (Homo sapiens) (UniProt Q05655); test: Inhibition of PKCdelta (unknown origin) at 1 uM
[27] = target: STE20-like serine/threonine-protein kinase (SLK) (Homo sapiens) (UniProt Q9H2G2); test: Inhibition of SLK (unknown origin) at 1 uM
[28] = target: Serine/threonine-protein kinase Nek6 (Homo sapiens) (UniProt Q9HC98); test: Inhibition of NEK6 (unknown origin) at 1 uM
[29] = target: Aurora kinase B (Homo sapiens) (UniProt Q96GD4); test: Inhibition of AuroraB (unknown origin) at 1 uM
[30] = target: Mitogen-activated protein kinase 9 (Homo sapiens) (UniProt P45984); test: Inhibition of JNK2 (unknown origin) at 1 uM
[31] = target: Tyrosine-protein kinase BTK (Mus musculus, UniProt P35991); test: Inhibition of BTK in Balb/c mouse B cells assessed as inhibition of anti-IgM-stimulated CD86 expression by flow cytometry; format: cell-based
[32] = target: Serine/threonine-protein kinase Sgk1 (Homo sapiens) (UniProt O00141); test: Inhibition of SGK1 (unknown origin) at 1 uM
[33] = target: Serine/threonine-protein kinase PAK 1 (Homo sapiens) (UniProt Q13153); test: Inhibition of PAK1 (unknown origin) at 1 uM
Sequence of Serine/threonine-protein kinase PAK 1 (Homo sapiens) (Q13153 whole entry): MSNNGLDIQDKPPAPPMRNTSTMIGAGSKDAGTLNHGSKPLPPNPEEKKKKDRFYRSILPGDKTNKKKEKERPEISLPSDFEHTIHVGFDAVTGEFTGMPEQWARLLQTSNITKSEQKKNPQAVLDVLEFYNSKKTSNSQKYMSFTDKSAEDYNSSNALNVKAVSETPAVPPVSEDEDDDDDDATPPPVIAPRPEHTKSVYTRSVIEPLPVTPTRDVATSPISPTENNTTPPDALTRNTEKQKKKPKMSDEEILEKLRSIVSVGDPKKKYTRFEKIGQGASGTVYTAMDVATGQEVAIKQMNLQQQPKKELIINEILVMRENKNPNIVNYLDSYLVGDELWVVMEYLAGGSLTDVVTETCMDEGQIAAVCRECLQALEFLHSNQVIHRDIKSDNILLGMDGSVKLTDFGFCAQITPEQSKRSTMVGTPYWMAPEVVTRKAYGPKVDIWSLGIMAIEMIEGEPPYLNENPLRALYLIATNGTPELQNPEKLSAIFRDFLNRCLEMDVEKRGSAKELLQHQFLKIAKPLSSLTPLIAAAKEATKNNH

[34] = target: Dual specificity protein kinase CLK4 (Homo sapiens) (UniProt Q9HAZ1); test: Inhibition of CLK4 (unknown origin) at 1 uM
[35] = target: Mitogen-activated protein kinase kinase kinase 8 (Homo sapiens) (UniProt P41279); test: Inhibition of Cot (unknown origin) at 1 uM
[36] = target: Interleukin-1 receptor-associated kinase 4 (Homo sapiens) (UniProt Q9NWZ3); test: Inhibition of IRAK4 (unknown origin) at 1 uM
[37] = target: Casein kinase I isoform gamma-1 (Homo sapiens) (UniProt Q9HCP0); test: Inhibition of CK1 gamma1 (unknown origin) at 1 uM
[38] = target: Serine/threonine-protein kinase 24 (Homo sapiens) (UniProt Q9Y6E0); test: Inhibition of MST3 (unknown origin) at 1 uM
Sequence of Serine/threonine-protein kinase 24 (Homo sapiens) (Q9Y6E0 whole entry, looked up): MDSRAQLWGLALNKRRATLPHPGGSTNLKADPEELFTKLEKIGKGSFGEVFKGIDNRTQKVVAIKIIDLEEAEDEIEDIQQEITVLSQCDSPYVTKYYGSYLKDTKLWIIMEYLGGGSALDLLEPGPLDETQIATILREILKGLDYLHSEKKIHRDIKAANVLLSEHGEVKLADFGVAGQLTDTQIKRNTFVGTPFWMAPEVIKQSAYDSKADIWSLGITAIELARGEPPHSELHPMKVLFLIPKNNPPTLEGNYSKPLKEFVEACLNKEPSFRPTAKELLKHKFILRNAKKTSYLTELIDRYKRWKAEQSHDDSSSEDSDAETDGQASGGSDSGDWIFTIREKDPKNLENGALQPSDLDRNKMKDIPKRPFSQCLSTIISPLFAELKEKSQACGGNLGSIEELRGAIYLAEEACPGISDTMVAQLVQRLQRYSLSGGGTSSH

[39] = target: Cyclin-dependent kinase 7/ cyclin H (Homo sapiens) (UniProt P51946+P50613); test: Inhibition of CDK7/cyclinH (unknown origin) at 1 uM; format: protein-complex assay
[40] = target: Casein kinase I isoform alpha (Homo sapiens) (UniProt P48729); test: Inhibition of CK1 alpha1 (unknown origin) at 1 uM
[41] = target: Ribosomal protein S6 kinase alpha-5 (Homo sapiens) (UniProt O75582); test: Inhibition of MSK1 (unknown origin) at 1 uM
[42] = target: Serine/threonine-protein kinase NLK (Homo sapiens) (UniProt Q9UBE8); test: Inhibition of NLK (unknown origin) at 1 uM
[43] = system: Salmonella typhimurium; test: Genotoxicity in Salmonella typhimurium TA100 by Ames test in presence of S9 fraction; format: toxicity, organism-based; details: salmonella enterica subsp. enterica serovar typhimurium

Cc1c(-c2cc(Nc3cc4n(n3)CCN(C)C4)c(=O)[nH]n2)ccc(F)c1NC(=O)c1cc2ccccc2s1
inhibition [1]: -3.8% | inhibition [2]: -8% | inhibition [3]: 7.3% | inhibition [4]: -0.8% | inhibition [5]: 35.1% | inhibition [6]: 10.3% | inhibition [7]: 1.9% | inhibition [8]: 5.8% | inhibition [9]: 5.7% | inhibition [10]: 38.3% | inhibition [11]: 2.2% | inhibition [12]: 8.7% | inhibition [13]: 1.5% | inhibition [14]: 7.6% | inhibition [15]: 0.8% | inhibition [16]: 8.5% | inhibition [17]: -6.9% | inhibition [18]: 17.8% | inhibition [19]: -9% | inhibition [20]: -6.8% | inhibition [21]: 4.7% | inhibition [22]: 1.4% | inhibition [23]: -3.6% | inhibition [24]: 10.6% | inhibition [25]: -3.5% | inhibition [26]: -8% | inhibition [27]: -3% | inhibition [28]: 5.3% | inhibition [29]: -0.4% | inhibition [30]: 1.8% | IC50 [31]: 91 nM | inhibition [32]: 4.6% | inhibition [33]: 3.4% | inhibition [34]: 5.8% | inhibition [35]: 20.1% | inhibition [36]: 2% | inhibition [37]: 6.2% | inhibition [38]: 9% | inhibition [39]: -7.7% | inhibition [40]: 4% | inhibition [41]: -6.5% | inhibition [42]: -4.8% | Activity [43]: Non-toxic
